The text below walks through data of patent publication US6688468B2, “Pharmaceutical kit for oxygen-sensitive drugs” (Pfizer Inc., priority 2001, dated 2004).

The data set can be described thus: 18-week stability of Compound I tablets packaged in 60 cc HDPE bottles with HIS; degradation products by HPLC. It counts as physicochemical. Conditions: Initial bulk, 0 weeks. Here is the method: In an initial evaluation of oxygen absorbers, the bottles were sealed with heat induction seals (HIS). The following samples were prepared by placing the following materials in a round HDPE bottle (60 cc capacity) and sealing with a heat-induction seal:
Tablets were stored eighteen weeks under three different conditions: (1) 5° C./75% relative humidity (RH); (2) 40° C./75% RH; and (3) 50° C./20% RH. Air in the bottles was sampled using a gas tight syringe equipped with a septum seal as the foil was punctured. The sampled air was analyzed using a Mocon™ headspace analyzer (PAL Model 450 available from Mocon™ Inc., Minneapolis, Minn.). Each tablet was dissolved in 250 ml of a solution prepared by dissolving 21.6 g of octane sulfonic acid and 6.8 g of potassium phosphate in 1.0 liters of purified water and adjusting the pH to 3 with phosphoric acid followed by the addition of 818 mL of acetonitrile. Degradation products were identified by high pressure liquid chromatography (HPLC) (Waters sym C8 column, 15 cm×3.9 mm, nylon acrodisc filter, HPLC HP 1100 series, 20 μl injection volume, flow of 1 mL/min). The degradation products were compared against three known standards (Compounds I-1A′, I-1A″ and I-1B).

`COc1ccc(C(C)C)cc1CN[C@@H]1C2CCN(CC2)[C@@H]1C(c1ccccc1)c1ccccc1` [Compound I]: the “I-1A′” value is 0.000 Wt %, the “I-1A″” value turned out to be 0.300 Wt %, the I-1B was 0.027 Wt % and the Total is listed as 0.37%. In addition, the “Unknown (first Unknown column)” value worked out at 0.01 Area % and the “Unknown (second Unknown column)” value was 0.03 Area %.
